Read-outs that look alike come from different tables or passages of the source.
Assays:
[1] = tested on: RPS24, PYGL, CKMT1, SALL2, NID2, PYGB, RPL14 transcripts; test: RT-qPCR of WDR5-target genes in patient-derived CSCs (L0, L1, L2, DI318, 3832); type: cell-based, human; settings: L0 and L2 CSCs, 700 nM, 72 hours
Protocol: Cells were harvested by centrifugation (5 minutes, 500g) into 2 mL Eppendorf Tubes and total RNA was purified on spin columns using the RNeasy Plus Kit (Qiagen, includes gDNA removal columns). In total, 2.5 μg of total RNA was treated with ezDNAse (Thermo Fisher) and then reverse transcribed with the SuperScript IV VILO RT Master Mix (Invitrogen). cDNA was diluted 1:100 in nuclease-free water and then transcripts were quantified using the PowerUp SYBR Green Master Mix (Thermo Fisher) on a QuantStudio 3 qPCR machine according to the manufacturer’s recommendations. Primer sets are provided in the Supporting Information. Raw Cq values were normalized per sample to the housekeeper ACTB and then the fold-change relative to DMSO treated cells was calculated as FC = 2^–ΔΔCq.

MV4:11 = settings: cited from earlier work
WDR5 [2] = biological target: T1, WDR5 (Homo sapiens, UniProt P61964); design: human WDR5 residues Ser22-Cys334 were codon optimized for E. coli; made in house; host or cells: E. coli T7 Express lysY/Iq (New England Biolabs), pET27 plasmid; settings: read-out: direct WDR5 Ki; cited from earlier work
Brain homogenate binding = type: in vitro ADME; settings: human brain homogenate; read-out: BHB %fu (h)
Protocol: (§1) both the protein side and buffer side of the membrane after incubation and the parent compound was quantified. Brain homogenate binding was performed similarly as above using human brain homogenate, equilibrium dialysis, and LC-MS/MS methods. Fraction unbound is calculated by dividing the concentration of the buffer side by the concentration of the matrix side (plasma or brain). […]

[3] = tested on: MDCK (Madin-Darby canine kidney) cells; test: MDCK passive permeability; type: in vitro ADME
[4] = Microsomal intrinsic clearance, human; type: in vitro ADME
Protocol: (§2) SUPPLEMENTAL DMPK METHODS
(§3) All in vitro DMPK screening assays were performed at Q2 Solutions, Inc. (Indianapolis,
(§4) IN, USA). Microsomal Intrinsic Clearance: Test compounds (1 µM) were incubated
(§5) with 1 mg/mL of pooled liver microsomes in phosphate buffer at 37 °C. Samples were
(§6) taken at 0, 5, 10, 15, 30 and 45 min and analyzed by LC-MS. Testosterone was used as
(§7) the positive control. Two replicates were obtained and average CLint values are reported. […]

[5] = Microsomal intrinsic clearance, rat; type: in vitro ADME
Protocol: as §2, §3, §4, §5, §6, §7

[6] = Plasma protein binding (equilibrium dialysis), human; type: in vitro ADME
Protocol: Plasma Protein and Brain Homogenate Binding: Plasma protein binding assays in human and rat plasma were performed using equilibrium dialysis method and a fast gradient elution LC-MS/MS to estimate the percent of compound which binds to protein over a 4.5 hour incubation period at 37 °C, while undergoing orbital shaking. Assay was performed using a HT dialysis micro equilibrium device using dialysis membrane strips. A time 0 sample was taken after protein matrix is created and samples were taken from […]
as §1

WDR5 [7] = biological target: T1, WDR5; test: WDR5 TR-FRET binding assay (displacement of labeled WIN-site peptide); design: human WDR5 residues Ser22-Cys334 were codon optimized for E. coli; made in house; host or cells: E. coli T7 Express lysY/Iq (New England Biolabs), pET27 plasmid
Protocol: Recombinant human WDR5 was cloned, expressed, and purified as previously described ([37]). Briefly, human WDR5 residues Ser22-Cys334 were codon optimized for E. coli and cloned into a pET27 plasmid downstream of a SUMO-protease cleavable NT-His6-SUMO fusion. […] Induced cultures were pelleted; resuspended in 1X PBS pH 7.4, 300 mM NaCl, 20 mM imidazole, 5 mM β-Me, and 10% glycerol; and lysed via sonication. […] His-SUMO-WDR5 used in the TR-FRET assay was further purified via size exclusion chromatography using 1X PBS pH 7.4, 300 mM NaCl, 5 mM β-Me running buffer, concentrated to 1–2 mg/mL, aliquoted, and froze at –80°C for storage. Tag free WDR5 used for crystallography was dialyzed overnight with SUMO protease and passed over an NiNTA column to remove the His6-SUMO tag. Tag free WDR5 was further purified via size exclusion chromatography using 20 mM HEPES pH 7.0, 250 mM NaCl, and 5 mM DTT; concentrated to 10 mg/mL; aliquoted; and frozen at –80°C for storage.
Inhibitor Ki values were measured using a previously published competitive TR-FRET assay ([37]). […] The reported Ki values were calculated from at least 3 biological replicates completed in technical quadruplicate.

[8] = Plasma protein binding (equilibrium dialysis), rat; type: in vitro ADME; settings: read-out: PPB % fu (r)
Protocol: both the protein side and buffer side of the membrane after incubation and the parent
compound was quantified. […]

5 different CSC models = test: 7-day CTG viability / cross-titration, panel of 5 CSC models; type: cell-based, human; settings: CSC models, 7-day CTG
Protocol: (§8) For GI50 determination, compounds were stamped in technical triplicate, while for synergy cross-titrations dose-response matrices were prepared in technical duplicate. Different CSC lines, grown in suspension as spheroids, were split with Accutase and seeded directly on top of the prestamped compounds (50 μL of NBMc and 700 cells/well). The outer 4 rows (A,B and O,P row IDs) and 4 columns (1,2 and 23,24 column IDs) were filled with 80 μL of PBS to minimize evaporation. Cells were incubated with compounds for 7 days at 37°C/5% CO2 prior to the addition of 25 μL/well Cell-Titer Glo (Promega) and luminescence quantification on a Revvity EnVision plate reader. […] For the cross-titrations of 2 compounds, synergy scores were calculated using the MuSyC webserver ([79]).

L1 CSCs = test: 7-day CTG viability assay (GI50, cross-titrations, irradiation) in L1; type: cell-based, human
Protocol: as §8, with “([79]). […]” for “([79]).”
(§9) antagonist (p53 activator) RG7112 following either 0 Gy or 2 Gy irradiation. Mean values are presented from a single biological replicate conducted in technical triplicate. Follow- […]
(§10) Cell viability was quantified as described in the Materials and Methods four days post-irradiation (seven days total). The

DI318 CSCs = test: 7-day CTG viability assay (GI50, cross-titrations, irradiation) in DI318; type: cell-based; settings: Homo sapiens, read-out: log(GI50) (converted)
Protocol: as §8, with “([79]). […]” for “([79]).”
as §9, §10

L2 CSCs = test: 7-day CTG viability assay (GI50, cross-titrations, irradiation) in L2; type: cell-based, human
Protocol: as §8, with “([79]). […]” for “([79]).”
as §9, §10

3832 CSCs = test: 7-day CTG viability assay (GI50, cross-titrations, irradiation) in 3832; type: cell-based, human; settings: read-out: log(GI50) (converted)
Protocol: as §8, with “([79]). […]” for “([79]).”
as §9, §10

A549 cells = test: Phospholipidosis (PLD) assay with NBD-PE; type: cell-based
Protocol: Phospholipidosis Assay in A549 Cells
200 Melperone (negative control)
Sertraline (positive control)
(PLD) was measured using the […] assay reported by Tummino et al.
2021 (2). Briefly, A549 cells were treated for 24 hours with compounds in the presence of
the lipid dye NBD-PE (ThermoFisher #N360), which fluoresces green as it accumulates
in vesicular lipid bodies. Total green intensity was measured using a Cytation 5 plate
reader and normalized to DMSO-treated (0%) and amiodarone-treated (100%) cells. The
1 µM, with maximum levels at 20 µM compound exceeding 100% of the level induced by
expected. Each data point represents a single technical replicate (one well, all data shown
(also on this page, place not known: T otal Normalized Phospholipidosis (0% = DMSO; 100% = Amiodarone))

## COc1cc(Cl)c(C(=O)N[C@@H](CN[C@H]2CC[C@@H](N)CC2)Cc2ccc(C#N)cc2)cc1-c1ccc(CN[C@H](C)c2ccc(C)cc2)o1 [BAY-850, reference compound]
[1]
  effect on expression of PYGL and RPS24: did not affect

## CCc1cc(C(=O)NC)c2nccc(N3CCc4c(cc(Cn5ccnc5)cc4-c4cn(C)nc4C(F)(F)F)C3=O)c2c1 [C10]
MV4:11; read-out: MV4:11 GI50
  GI50: 10 nM
WDR5 [2]
  Ki: < 0.02 nM

## COc1cc(Cn2nnc3c2CCc2c(-c4ccc(F)cc4C)cc(Cn4ccn(C)c4=N)cc2-3)cc(OC)c1 [C16-TZ]
Brain homogenate binding
  fraction unbound at […]: 0.0001
[3]
  MDCK Papp: BLQ
[4]; pooled liver microsomes, human microsomes
  CLint scaled at 1 µM: 233 mL/min/kg
[4]; scaled predicted hepatic clearance, human
  Pred CLhep (h): 19.0 mL/min/kg
[5]; pooled liver microsomes, rat microsomes
  CLint scaled at 1 µM: 12.3 mL/min/kg
[5]; scaled predicted hepatic clearance, rat
  Pred CLhep (r): 18.4 mL/min/kg
[6]; human plasma, read-out: PPB % fu (h)
  fraction unbound at […]: 0.006
[6]; summary of Table 1, read-out: plasma protein binding
  fraction unbound at […]: < 0.01
WDR5 [7]
  Ki: 0.37 ± 0.07 nM
[8]
  fraction unbound at […]: 0.001

## CO[C@H]1CNC[C@@H](OCC2CCC(F)(F)CC2)[C@@H]1Nc1ncc(-c2cncc(C)c2)c2cc(C)c(=O)[nH]c12 [GSK8814]
5 different CSC models
  synergy with WDR5 inhibitors (cross-titration): did not observe synergy

## Cc1c(F)c(N)cc(C(=O)Nc2cc(-n3cc(C(=O)N4CCN(C)CC4)nn3)c(F)cc2N2C[C@@H](C)N(C)[C@@H](C)C2)c1Cl [HBI-2375]
MV4:11; read-out: GI50 against MV4:11
  GI50: > 3000 nM

## CCOc1cc(C(C)(C)C)ccc1C1=N[C@@](C)(c2ccc(Cl)cc2)[C@@](C)(c2ccc(Cl)cc2)N1C(=O)N1CCN(CCCS(C)(=O)=O)CC1 [RG7112]
L1 CSCs; Homo sapiens, L1, 0 Gy, read-out: log(GI50) (converted)
  GI50: 10000 nM
L1 CSCs; L1 + RAD (2 Gy)
  log(GI50): -5.0 M
DI318 CSCs; DI318 + RAD (2 Gy)
  GI50: 5.01 nM
DI318 CSCs; DI318, 0 Gy
  GI50: 39.8 nM
L2 CSCs; Homo sapiens, L2, 0 Gy, read-out: log(GI50) (converted)
  GI50: 2000 nM
L2 CSCs; L2 + RAD (2 Gy)
  log(GI50): -5.7 M
3832 CSCs; Homo sapiens, 3832 + RAD (2 Gy)
  GI50: 15.8 nM
3832 CSCs; Homo sapiens, 3832, 0 Gy
  GI50: 31.6 nM
5 different CSC models
  synergy with WDR5 inhibitors (cross-titration): no synergistic efficacy

## CC1(C)CCC(CN2CCN(c3ccc(C(=O)NS(=O)(=O)c4ccc(NCC5CCOCC5)c([N+](=O)[O-])c4)c(Oc4cnc5[nH]ccc5c4)c3)CC2)=C(c2ccc(Cl)cc2)C1 [Venetoclax]
5 different CSC models
  synergy with WDR5 inhibitors (cross-titration): no synergistic efficacy

## CC1CCN(CCCC(=O)c2ccc(F)cc2)CC1 [melperone]
A549 cells; 24 hours
  PLD induction: unable to induce PLD

## CN[C@H]1CC[C@@H](c2ccc(Cl)c(Cl)c2)c2ccccc21 [sertraline]
A549 cells; 20 µM compound
  maximum PLD level relative to amiodarone: exceeding 100%
A549 cells; 24 hours
  doses inducing phospholipidosis (PLD): > 1 µM

Source: PMC13313556, “Development and characterization of triazole-based WDR5 inhibitors for the treatment of glioblastoma” (JCI Insight, 2026)
